Laboratory results: article PMC7613998, “Development of selective inhibitors of phosphatidylinositol 3-kinase C2α” (Nature Chemical Biology, 2022)

What was measured:
Assay in all cases: biochemical
Set-up in all cases: SelectScreen LanthaScreen kinase binding assay, per cent tracer displacement, mean of two points
Conditions in all cases: tracer displacement
[1] = molecular target: BRAF (Homo sapiens, UniProt P15056)
[2] = molecular target: CDK16 (PCTK1)/cyclin Y (Homo sapiens, UniProt Q00536)
[3] = molecular target: CDK2/cyclin O (Homo sapiens, UniProt P24941)
[4] = molecular target: CDK3/cyclin E1 (Homo sapiens, UniProt Q00526)
[5] = molecular target: MAP2K1 (MEK1) (Homo sapiens, UniProt Q02750)
[6] = molecular target: MAP2K2 (MEK2) (Homo sapiens, UniProt P36507)
[7] = molecular target: STK32C (YANK3) (Homo sapiens, UniProt Q86UX6)
[8] = molecular target: T1, TGFBR1 (ALK5) (Homo sapiens, UniProt P36897)
T1 sequence (P36897 1-503): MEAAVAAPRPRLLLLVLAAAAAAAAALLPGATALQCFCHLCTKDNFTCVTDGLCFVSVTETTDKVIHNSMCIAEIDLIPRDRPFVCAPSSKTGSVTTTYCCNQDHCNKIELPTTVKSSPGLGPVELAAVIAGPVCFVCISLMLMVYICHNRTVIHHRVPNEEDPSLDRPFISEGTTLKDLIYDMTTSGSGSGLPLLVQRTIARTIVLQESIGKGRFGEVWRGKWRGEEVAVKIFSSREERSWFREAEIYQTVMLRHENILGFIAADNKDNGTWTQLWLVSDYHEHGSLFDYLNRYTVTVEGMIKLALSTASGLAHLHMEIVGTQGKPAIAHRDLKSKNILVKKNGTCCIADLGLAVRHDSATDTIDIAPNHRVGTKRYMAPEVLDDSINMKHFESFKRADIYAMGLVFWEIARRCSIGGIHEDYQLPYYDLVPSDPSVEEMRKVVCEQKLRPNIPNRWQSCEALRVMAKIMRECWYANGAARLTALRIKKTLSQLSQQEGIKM

[9] = molecular target: TNIK (Homo sapiens, UniProt Q9UKE5)
[10] = molecular target: T2, ULK2 (Homo sapiens, UniProt Q8IYT8)
T2 sequence (Q8IYT8 1-1036): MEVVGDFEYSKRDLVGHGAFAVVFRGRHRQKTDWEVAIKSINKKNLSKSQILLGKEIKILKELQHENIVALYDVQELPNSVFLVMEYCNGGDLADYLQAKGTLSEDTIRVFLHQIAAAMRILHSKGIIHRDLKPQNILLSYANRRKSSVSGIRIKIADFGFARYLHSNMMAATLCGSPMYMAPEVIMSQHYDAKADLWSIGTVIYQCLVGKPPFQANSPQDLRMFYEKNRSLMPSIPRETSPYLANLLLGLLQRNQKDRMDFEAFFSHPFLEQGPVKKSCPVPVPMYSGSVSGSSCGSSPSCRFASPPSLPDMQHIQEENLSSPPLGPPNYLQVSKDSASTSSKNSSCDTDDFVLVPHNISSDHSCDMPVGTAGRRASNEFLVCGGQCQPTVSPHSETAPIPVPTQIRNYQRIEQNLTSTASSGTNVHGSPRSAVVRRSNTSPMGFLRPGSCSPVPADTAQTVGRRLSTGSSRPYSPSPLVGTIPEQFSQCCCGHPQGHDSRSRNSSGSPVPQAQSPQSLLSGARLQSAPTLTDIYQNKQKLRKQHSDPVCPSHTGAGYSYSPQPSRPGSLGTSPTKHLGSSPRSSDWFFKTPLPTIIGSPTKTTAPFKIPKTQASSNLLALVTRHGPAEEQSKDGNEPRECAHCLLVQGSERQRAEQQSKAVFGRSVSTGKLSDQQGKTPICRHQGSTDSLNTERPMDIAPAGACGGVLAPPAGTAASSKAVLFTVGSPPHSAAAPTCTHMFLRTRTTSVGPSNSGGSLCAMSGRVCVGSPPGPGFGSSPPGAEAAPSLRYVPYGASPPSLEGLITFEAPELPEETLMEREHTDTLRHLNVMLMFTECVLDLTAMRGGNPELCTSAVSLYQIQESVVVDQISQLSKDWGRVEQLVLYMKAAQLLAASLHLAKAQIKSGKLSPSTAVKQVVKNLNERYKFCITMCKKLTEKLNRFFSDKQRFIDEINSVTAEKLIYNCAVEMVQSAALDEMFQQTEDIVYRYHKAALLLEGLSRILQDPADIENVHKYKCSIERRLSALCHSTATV

Sequence of CDK16 (PCTK1)/cyclin Y (Q00536 whole entry): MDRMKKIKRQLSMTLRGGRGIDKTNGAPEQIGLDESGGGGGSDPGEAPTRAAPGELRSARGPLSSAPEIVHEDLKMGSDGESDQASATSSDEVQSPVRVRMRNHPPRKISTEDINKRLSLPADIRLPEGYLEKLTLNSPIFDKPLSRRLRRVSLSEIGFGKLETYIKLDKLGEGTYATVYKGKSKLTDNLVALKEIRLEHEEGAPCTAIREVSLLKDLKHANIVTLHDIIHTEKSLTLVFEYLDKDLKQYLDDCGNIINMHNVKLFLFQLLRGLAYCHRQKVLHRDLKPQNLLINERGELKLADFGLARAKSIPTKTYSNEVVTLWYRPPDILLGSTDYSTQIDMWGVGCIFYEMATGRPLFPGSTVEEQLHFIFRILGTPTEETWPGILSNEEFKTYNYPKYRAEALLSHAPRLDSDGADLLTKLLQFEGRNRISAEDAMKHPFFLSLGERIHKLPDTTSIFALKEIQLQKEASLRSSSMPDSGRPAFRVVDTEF
Sequence of CDK16 (PCTK1)/cyclin Y (Q8ND76 whole entry partner): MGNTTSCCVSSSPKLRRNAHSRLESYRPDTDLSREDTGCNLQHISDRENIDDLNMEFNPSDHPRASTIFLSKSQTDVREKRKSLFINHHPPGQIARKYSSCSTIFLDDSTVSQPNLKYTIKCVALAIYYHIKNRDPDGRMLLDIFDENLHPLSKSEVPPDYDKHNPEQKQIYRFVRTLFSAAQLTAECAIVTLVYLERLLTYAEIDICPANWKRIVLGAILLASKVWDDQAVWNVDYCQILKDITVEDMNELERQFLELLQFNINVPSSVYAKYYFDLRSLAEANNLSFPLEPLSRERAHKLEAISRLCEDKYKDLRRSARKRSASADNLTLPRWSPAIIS
Sequence of TNIK (Q9UKE5 whole entry): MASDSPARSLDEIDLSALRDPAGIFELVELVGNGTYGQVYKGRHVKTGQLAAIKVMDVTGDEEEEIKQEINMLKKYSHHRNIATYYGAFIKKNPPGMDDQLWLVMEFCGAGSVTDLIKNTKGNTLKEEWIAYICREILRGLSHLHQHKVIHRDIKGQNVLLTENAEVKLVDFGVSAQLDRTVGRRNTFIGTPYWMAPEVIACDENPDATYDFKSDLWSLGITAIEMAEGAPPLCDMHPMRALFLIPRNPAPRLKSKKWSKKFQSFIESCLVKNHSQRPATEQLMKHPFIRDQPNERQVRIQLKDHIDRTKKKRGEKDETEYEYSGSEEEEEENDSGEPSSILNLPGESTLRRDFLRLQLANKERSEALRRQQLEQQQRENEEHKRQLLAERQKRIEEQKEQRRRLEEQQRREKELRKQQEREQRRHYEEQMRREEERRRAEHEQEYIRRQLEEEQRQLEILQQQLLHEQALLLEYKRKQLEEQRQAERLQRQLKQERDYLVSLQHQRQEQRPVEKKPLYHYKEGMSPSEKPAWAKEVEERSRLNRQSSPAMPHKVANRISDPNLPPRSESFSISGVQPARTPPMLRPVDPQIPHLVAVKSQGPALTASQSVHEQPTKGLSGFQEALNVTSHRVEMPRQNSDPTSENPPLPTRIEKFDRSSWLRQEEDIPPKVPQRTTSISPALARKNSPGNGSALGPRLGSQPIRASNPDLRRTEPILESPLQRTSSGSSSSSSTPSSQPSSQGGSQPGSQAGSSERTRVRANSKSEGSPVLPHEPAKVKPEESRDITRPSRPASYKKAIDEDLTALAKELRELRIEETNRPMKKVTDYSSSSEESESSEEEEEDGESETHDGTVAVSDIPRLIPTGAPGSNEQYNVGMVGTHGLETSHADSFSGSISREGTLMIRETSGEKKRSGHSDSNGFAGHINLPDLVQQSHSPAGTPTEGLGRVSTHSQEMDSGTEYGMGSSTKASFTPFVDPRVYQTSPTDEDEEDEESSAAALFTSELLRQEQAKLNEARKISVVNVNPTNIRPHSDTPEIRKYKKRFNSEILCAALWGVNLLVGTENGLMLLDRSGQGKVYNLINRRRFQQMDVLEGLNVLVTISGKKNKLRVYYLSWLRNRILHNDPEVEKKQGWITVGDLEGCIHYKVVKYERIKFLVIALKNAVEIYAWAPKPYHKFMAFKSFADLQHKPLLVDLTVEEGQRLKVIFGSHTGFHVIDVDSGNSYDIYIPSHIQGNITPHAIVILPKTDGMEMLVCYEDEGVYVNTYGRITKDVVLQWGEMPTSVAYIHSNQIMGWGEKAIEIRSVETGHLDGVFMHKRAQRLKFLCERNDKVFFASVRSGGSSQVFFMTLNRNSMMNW
Sequence of MAP2K1 (MEK1) (Q02750 whole entry): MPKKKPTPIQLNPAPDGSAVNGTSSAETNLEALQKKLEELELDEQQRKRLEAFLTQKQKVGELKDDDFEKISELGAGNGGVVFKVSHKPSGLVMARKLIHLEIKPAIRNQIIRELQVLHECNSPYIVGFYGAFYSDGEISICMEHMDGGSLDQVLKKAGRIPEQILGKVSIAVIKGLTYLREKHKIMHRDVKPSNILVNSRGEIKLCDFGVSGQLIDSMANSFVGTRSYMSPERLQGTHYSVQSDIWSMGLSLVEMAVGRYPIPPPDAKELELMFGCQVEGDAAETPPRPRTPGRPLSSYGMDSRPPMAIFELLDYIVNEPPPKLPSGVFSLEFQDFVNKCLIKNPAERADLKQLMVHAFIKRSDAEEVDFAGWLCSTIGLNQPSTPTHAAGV
Sequence of CDK3/cyclin E1 (Q00526 whole entry): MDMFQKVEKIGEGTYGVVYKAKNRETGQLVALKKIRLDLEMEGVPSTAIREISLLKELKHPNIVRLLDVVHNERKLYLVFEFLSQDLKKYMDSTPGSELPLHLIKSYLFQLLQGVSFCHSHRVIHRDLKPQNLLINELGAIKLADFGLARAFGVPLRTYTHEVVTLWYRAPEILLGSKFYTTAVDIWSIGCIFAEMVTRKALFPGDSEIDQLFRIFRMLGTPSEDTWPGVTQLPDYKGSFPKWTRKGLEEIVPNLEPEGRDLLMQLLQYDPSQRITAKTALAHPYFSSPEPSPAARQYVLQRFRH
Sequence of CDK3/cyclin E1 (P24864 whole entry partner): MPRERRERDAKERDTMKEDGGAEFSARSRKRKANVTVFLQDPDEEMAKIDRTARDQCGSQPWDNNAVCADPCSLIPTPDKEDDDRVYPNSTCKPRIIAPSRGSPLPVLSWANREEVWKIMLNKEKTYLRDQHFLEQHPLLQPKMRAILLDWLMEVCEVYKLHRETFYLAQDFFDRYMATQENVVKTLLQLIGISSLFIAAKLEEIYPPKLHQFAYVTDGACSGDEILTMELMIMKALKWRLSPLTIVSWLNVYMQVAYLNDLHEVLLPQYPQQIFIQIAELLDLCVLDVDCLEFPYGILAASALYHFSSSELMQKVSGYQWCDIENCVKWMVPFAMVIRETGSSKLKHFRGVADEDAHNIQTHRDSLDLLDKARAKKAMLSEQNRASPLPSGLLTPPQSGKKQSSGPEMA
Sequence of STK32C (YANK3) (Q86UX6 whole entry): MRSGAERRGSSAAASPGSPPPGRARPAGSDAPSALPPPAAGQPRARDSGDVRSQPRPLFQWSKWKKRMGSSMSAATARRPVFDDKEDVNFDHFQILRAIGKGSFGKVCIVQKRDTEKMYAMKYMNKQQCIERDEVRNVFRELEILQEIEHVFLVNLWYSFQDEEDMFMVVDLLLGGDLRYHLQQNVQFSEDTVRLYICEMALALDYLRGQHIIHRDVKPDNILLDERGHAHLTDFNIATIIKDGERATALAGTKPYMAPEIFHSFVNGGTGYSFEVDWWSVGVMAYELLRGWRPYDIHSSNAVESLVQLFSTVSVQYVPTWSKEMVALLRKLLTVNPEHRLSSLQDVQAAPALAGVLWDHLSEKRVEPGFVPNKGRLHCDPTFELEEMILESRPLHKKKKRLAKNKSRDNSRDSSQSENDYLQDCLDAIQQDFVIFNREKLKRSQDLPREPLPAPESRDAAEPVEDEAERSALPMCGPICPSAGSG
Sequence of MAP2K2 (MEK2) (P36507 whole entry): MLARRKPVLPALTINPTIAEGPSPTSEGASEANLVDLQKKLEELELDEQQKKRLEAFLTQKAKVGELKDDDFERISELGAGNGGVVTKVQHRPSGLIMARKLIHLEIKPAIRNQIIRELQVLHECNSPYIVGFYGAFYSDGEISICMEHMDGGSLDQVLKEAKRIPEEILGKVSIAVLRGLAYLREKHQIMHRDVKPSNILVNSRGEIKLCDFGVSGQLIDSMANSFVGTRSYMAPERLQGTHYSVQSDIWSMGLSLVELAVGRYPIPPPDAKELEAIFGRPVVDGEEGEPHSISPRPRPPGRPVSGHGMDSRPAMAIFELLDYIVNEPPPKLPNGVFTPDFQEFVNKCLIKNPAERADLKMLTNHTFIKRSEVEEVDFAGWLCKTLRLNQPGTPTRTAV
Sequence of BRAF (P15056 whole entry): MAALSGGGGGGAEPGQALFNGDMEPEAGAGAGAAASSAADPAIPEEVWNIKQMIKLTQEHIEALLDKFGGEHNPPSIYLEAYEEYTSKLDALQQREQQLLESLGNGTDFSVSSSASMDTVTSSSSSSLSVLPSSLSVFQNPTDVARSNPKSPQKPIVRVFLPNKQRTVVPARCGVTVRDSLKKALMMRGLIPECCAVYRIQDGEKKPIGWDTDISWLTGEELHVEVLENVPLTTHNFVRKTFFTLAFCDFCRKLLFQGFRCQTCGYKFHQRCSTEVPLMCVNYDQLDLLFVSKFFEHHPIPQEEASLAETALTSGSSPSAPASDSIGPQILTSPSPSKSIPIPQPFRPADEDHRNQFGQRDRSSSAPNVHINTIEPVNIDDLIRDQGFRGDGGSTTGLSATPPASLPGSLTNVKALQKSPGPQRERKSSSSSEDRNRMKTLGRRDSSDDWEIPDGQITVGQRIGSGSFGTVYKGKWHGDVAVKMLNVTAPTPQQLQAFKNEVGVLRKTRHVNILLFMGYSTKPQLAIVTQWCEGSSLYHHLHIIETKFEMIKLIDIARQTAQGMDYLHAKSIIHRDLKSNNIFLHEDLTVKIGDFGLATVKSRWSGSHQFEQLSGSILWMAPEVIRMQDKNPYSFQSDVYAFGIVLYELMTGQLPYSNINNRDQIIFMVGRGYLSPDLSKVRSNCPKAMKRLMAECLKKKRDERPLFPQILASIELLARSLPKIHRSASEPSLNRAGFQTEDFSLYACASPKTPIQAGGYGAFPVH

inhibition at 1 µM [1] | inhibition at 3 µM [1] | inhibition at 10 µM [1] | inhibition at 1 µM [2] | inhibition at 3 µM [2] | inhibition at 10 µM [2] | inhibition at 1 µM [3] | inhibition at 3 µM [3] | inhibition at 10 µM [3] | inhibition at 1 µM [4] | inhibition at 3 µM [4] | inhibition at 10 µM [4] | inhibition at 1 µM [5] | inhibition at 3 µM [5] | inhibition at 10 µM [5] | inhibition at 1 µM [6] | inhibition at 3 µM [6] | inhibition at 10 µM [6] | inhibition at 1 µM [7] | inhibition at 3 µM [7] | SMILES | further results
-3.95% | 1.69% | 0.837% | -6.54% | -14.5% | -1.48% | 17.6% | -4.45% | 7.96% | -0.974% | -9.41% | 1.77% | -0.281% | 2.33% | -0.179% | -3% | 2.42% | -1.45% | -7% | -1.98% | O=C(CSc1nc2nccnc2c(=O)n1CCc1ccccc1)Nc1nccs1 [compound 1, PITCOIN1] | inhibition at 10 µM [7]: -5.28%; inhibition at 1 µM [8]: -5.43%; inhibition at 3 µM [8]: 9.69%; inhibition at 10 µM [8]: 5.12%; inhibition at 1 µM [9]: -4.88%; inhibition at 3 µM [9]: -3.23%; inhibition at 10 µM [9]: -2.09%; inhibition at 1 µM [10]: -4.11%; inhibition at 3 µM [10]: -4.09%; inhibition at 10 µM [10]: -1.99%
6.15% | 7.18% | 9.11% | 3.53% | -5.28% | -6.76% | 18.1% | 11.6% | 2.75% | 13.1% | 8.71% | -18.8% | -0.643% | 0.136% | -2.2% | 0.637% | 2.82% | -3.31% | 8.19% | -2.39% | CS(=O)(=O)Nc1cccc(-c2csc(NC(=O)CSc3nc4nccnc4c(=O)n3CCc3ccccc3)n2)c1 [compound 3, PITCOIN3] | inhibition at 10 µM [7]: -8.61%; inhibition at 1 µM [8]: -4.81%; inhibition at 3 µM [8]: 14.1%; inhibition at 10 µM [8]: 1.48%; inhibition at 1 µM [9]: 4.57%; inhibition at 3 µM [9]: 2.17%; inhibition at 10 µM [9]: -4.46%; inhibition at 1 µM [10]: -2.32%; inhibition at 3 µM [10]: -0.489%; inhibition at 10 µM [10]: 2.18%
